Experimental data from ChEMBL document CHEMBL5346873, “Strategic modification of low-activity natural antimicrobial peptides confers antibacterial potential in vitro and in vivo” (Eur J Med Chem, 2023).
≈ marks a conversion by molar mass, not a printed value.

Experiments:
Enterococcus faecium [1] = assay: Bactericidal activity against Enterococcus faecium incubated overnight; type: functional
Vibrio vulnificus [2] = assay: Bactericidal activity against Vibrio vulnificus V1 incubated overnight; type: functional
Edwardsiella tarda [3] = assay: Bactericidal activity against Edwardsiella tarda incubated overnight; type: functional
Vibrio harveyi [4] = assay: Antibacterial activity against Vibrio harveyi incubated for 16 to 20 hrs; type: functional; conditions: time 16-20 hrs
Enterococcus faecalis [5] = assay: Bactericidal activity against Enterococcus faecalis incubated overnight; type: functional
Vibrio vulnificus [6] = assay: Bactericidal activity against Vibrio vulnificus V2 incubated overnight; type: functional
Vibrio vulnificus [7] = assay: Antibacterial activity against Vibrio vulnificus V3 incubated for 16 to 20 hrs; type: functional; conditions: time 16-20 hrs
Enterococcus faecalis [8] = assay: Antibacterial activity against Enterococcus faecalis incubated for 16 to 20 hrs; type: functional; conditions: time 16-20 hrs
Candida tropicalis [9] = assay: Antifungal activity against Candida tropicalis incubated for 16 to 20 hrs; type: functional; conditions: time 16-20 hrs
Klebsiella aerogenes [10] = assay: Bactericidal activity against Enterobacter aerogenes incubated overnight; type: functional
Klebsiella oxytoca [11] = assay: Bactericidal activity against Klebsiella oxytoca incubated overnight; type: functional
Pseudomonas aeruginosa [12] = assay: Antibacterial activity against Pseudomonas aeruginosa incubated for 16 to 20 hrs; type: functional; conditions: time 16-20 hrs
Klebsiella pneumoniae [13] = assay: Antibacterial activity against NDM Klebsiella pneumoniae incubated for 16 to 20 hrs; type: functional; conditions: time 16-20 hrs
Streptococcus iniae [14] = assay: Bactericidal activity against Streptococcus iniae incubated overnight; type: functional
Vibrio vulnificus [15] = assay: Antibacterial activity against Vibrio vulnificus V1 incubated for 16 to 20 hrs; type: functional; conditions: time 16-20 hrs
Enterococcus faecium [16] = assay: Antibacterial activity against Enterococcus faecium incubated for 16 to 20 hrs; type: functional; conditions: time 16-20 hrs
Salmonella enterica [17] = assay: Antibacterial activity against Salmonella enterica incubated for 16 to 20 hrs; type: functional; conditions: time 16-20 hrs
Vibrio vulnificus [18] = assay: Bactericidal activity against Vibrio vulnificus V3 incubated overnight; type: functional
Edwardsiella tarda [19] = assay: Antibacterial activity against Edwardsiella tarda incubated for 16 to 20 hrs; type: functional; conditions: time 16-20 hrs
Vibrio vulnificus [20] = assay: Antibacterial activity against Vibrio vulnificus 204 incubated for 16 to 20 hrs; type: functional; conditions: time 16-20 hrs
Vibrio vulnificus [21] = assay: Antibacterial activity against Vibrio vulnificus V2 incubated for 16 to 20 hrs; type: functional; conditions: time 16-20 hrs
Vibrio alginolyticus [22] = assay: Bactericidal activity against Vibrio alginolyticus incubated overnight; type: functional
Klebsiella oxytoca [23] = assay: Antibacterial activity against Klebsiella oxytoca incubated for 16 to 20 hrs; type: functional; conditions: time 16-20 hrs
[24] = tested on: Staphylococcus haemolyticus; assay: Antibacterial activity against Staphylococcus haemolyticus incubated for 16 to 20 hrs; type: functional; conditions: time 16-20 hrs
Salmonella typhimurium [25] = assay: Antibacterial activity against Salmonella typhimurium incubated for 16 to 20 hrs; type: functional, Salmonella enterica subsp. enterica serovar Typhimurium; conditions: time 16-20 hrs
Nakaseomyces glabratus [26] = assay: Antifungal activity against Candida glabrata incubated for 16 to 20 hrs; type: functional; conditions: time 16-20 hrs
Vibrio alginolyticus [27] = assay: Antibacterial activity against Vibrio alginolyticus incubated for 16 to 20 hrs; type: functional; conditions: time 16-20 hrs
Vibrio vulnificus [28] = assay: Antibacterial activity against Vibrio vulnificus infected in BALB/c mouse wound infection model assessed as survival at 0.048 ug per animal administered 12 hrs post infection and measured for 14 days; type: functional; conditions: dose 0.048 µg; time 14 day
[29] = tested on: Staphylococcus haemolyticus; assay: Bactericidal activity against Staphylococcus haemolyticus incubated overnight; type: functional
Escherichia coli [30] = assay: Antibacterial activity against Escherichia coli incubated for 16 to 20 hrs; type: functional; conditions: time 16-20 hrs
Klebsiella pneumoniae [31] = assay: Bactericidal activity against NDM Klebsiella pneumoniae incubated overnight; type: functional
Streptococcus iniae [32] = assay: Antibacterial activity against Streptococcus iniae incubated for 16 to 20 hrs; type: functional; conditions: time 16-20 hrs
Acinetobacter baumannii = assay: Antibacterial activity against Acinetobacter baumannii; type: functional
Candida tropicalis [33] = assay: Fungicidal activity against Candida tropicalis incubated overnight; type: functional
Vibrio anguillarum [34] = assay: Antibacterial activity against Listonella anguillarum incubated for 16 to 20 hrs; type: functional; conditions: time 16-20 hrs
Vibrio harveyi [35] = assay: Bactericidal activity against Vibrio harveyi incubated overnight; type: functional
Vibrio vulnificus [36] = assay: Antibacterial activity against Vibrio vulnificus 204 assessed as induction of resistance development by measuring fold increase in MIC measured after 15 passages; type: functional
Aeromonas hydrophila [37] = assay: Bactericidal activity against Aeromonas hydrophila incubated overnight; type: functional
Streptococcus agalactiae [38] = assay: Bactericidal activity against Streptococcus agalactiae incubated overnight; type: functional
Escherichia coli [39] = assay: Bactericidal activity against Escherichia coli incubated overnight; type: functional
Vibrio anguillarum [40] = assay: Bactericidal activity against Listonella anguillarum incubated overnight; type: functional
Salmonella typhimurium [41] = assay: Bactericidal activity against Salmonella typhimurium incubated overnight; type: functional, Salmonella enterica subsp. enterica serovar Typhimurium
Klebsiella aerogenes [42] = assay: Antibacterial activity against Enterobacter aerogenes incubated for 16 to 20 hrs; type: functional; conditions: time 16-20 hrs
Salmonella enterica [43] = assay: Bactericidal activity against Salmonella enterica incubated overnight; type: functional
Nakaseomyces glabratus [44] = assay: Fungicidal activity against Candida glabrata incubated overnight; type: functional
Aeromonas hydrophila [45] = assay: Antibacterial activity against Aeromonas hydrophila incubated for 16 to 20 hrs; type: functional; conditions: time 16-20 hrs
Streptococcus agalactiae [46] = assay: Antibacterial activity against Streptococcus agalactiae incubated for 16 to 20 hrs; type: functional; conditions: time 16-20 hrs
Vibrio vulnificus [47] = assay: Bactericidal activity against Vibrio vulnificus 204 incubated overnight; type: functional
Pseudomonas aeruginosa [48] = assay: Bactericidal activity against Pseudomonas aeruginosa incubated overnight; type: functional
[49] = Salmonella enterica subsp. enterica serovar Typhimurium

## C[C@H]1c2cccc(O)c2C(=O)C2=C(O)[C@]3(O)C(=O)C(C(N)=O)=C(O)[C@@H](N(C)C)[C@@H]3[C@@H](O)[C@@H]21.O [DOXYCYCLINE]
Enterococcus faecium [1]
  MBC: < 1.56 µg/mL
Vibrio vulnificus [2]
  MBC: < 1.56 µg/mL
Edwardsiella tarda [3]
  MBC: < 1.56 µg/mL
Vibrio harveyi [4]
  MIC: < 1.56 µg/mL
Enterococcus faecalis [5]
  MBC: 6.25 µg/mL
Vibrio vulnificus [6]
  MBC: < 1.56 µg/mL
Vibrio vulnificus [7]
  MIC: < 1.56 µg/mL
Enterococcus faecalis [8]
  MIC: 6.25 µg/mL
Candida tropicalis [9]
  MIC: > 100 µg/mL
Klebsiella aerogenes [10]
  MBC: 6.25 µg/mL
Klebsiella oxytoca [11]
  MBC: 25 µg/mL
Pseudomonas aeruginosa [12]
  MIC: 6.25 µg/mL
Klebsiella pneumoniae [13]
  MIC: 25 µg/mL
Streptococcus iniae [14]
  MBC: < 1.56 µg/mL
Vibrio vulnificus [15]
  MIC: < 1.56 µg/mL
Enterococcus faecium [16]
  MIC: < 1.56 µg/mL
Salmonella enterica [17]
  MIC: < 1.56 µg/mL
Vibrio vulnificus [18]
  MBC: < 1.56 µg/mL
Edwardsiella tarda [19]
  MIC: < 1.56 µg/mL
Vibrio vulnificus [20]
  MIC: < 1.56 µg/mL
Vibrio vulnificus [21]
  MIC: < 1.56 µg/mL
Vibrio alginolyticus [22]
  MBC: 12.5 µg/mL
Klebsiella oxytoca [23]
  MIC: 3.12 µg/mL
[24]
  MIC: < 1.56 µg/mL
Salmonella typhimurium [25]; Salmonella enterica
  MIC: < 1.56 µg/mL
Nakaseomyces glabratus [26]
  MIC: > 100 µg/mL
Vibrio alginolyticus [27]
  MIC: < 1.56 µg/mL
Vibrio vulnificus [28]
  Activity: 25%
[29]
  MBC: < 1.56 µg/mL
Escherichia coli [30]
  MIC: < 1.56 µg/mL
Klebsiella pneumoniae [31]
  MBC: 100 µg/mL
Streptococcus iniae [32]
  MIC: < 1.56 µg/mL
Acinetobacter baumannii
  MIC: 0.048 µg/mL
Candida tropicalis [33]
  MFC: > 100 µg/mL
Vibrio anguillarum [34]
  MIC: < 1.56 µg/mL
Vibrio harveyi [35]
  MBC: 12.5 µg/mL
Vibrio vulnificus [36]
  fold change (FC): 128
Aeromonas hydrophila [37]
  MBC: 12.5 µg/mL
Streptococcus agalactiae [38]
  MBC: < 1.56 µg/mL
Escherichia coli [39]
  MBC: 50 µg/mL
Vibrio anguillarum [40]
  MBC: 50 µg/mL
Salmonella typhimurium [41]; Salmonella enterica
  MBC: 50 µg/mL
Klebsiella aerogenes [42]
  MIC: 1.56 µg/mL
Salmonella enterica [43]
  MBC: 25 µg/mL
Nakaseomyces glabratus [44]
  MFC: > 100 µg/mL
Aeromonas hydrophila [45]
  MIC: < 1.56 µg/mL
Streptococcus agalactiae [46]
  MIC: < 1.56 µg/mL
Vibrio vulnificus [47]
  MBC: < 1.56 µg/mL

## COLISTIN
Enterococcus faecium [1]
  MBC: > 100 µg/mL
Vibrio vulnificus [2]
  MBC: 50 µg/mL
Edwardsiella tarda [3]
  MBC: 6.25 µg/mL
Vibrio harveyi [4]
  MIC: > 100 µg/mL
Enterococcus faecalis [5]
  MBC: 50 µg/mL
Vibrio vulnificus [6]
  MBC: 50 µg/mL
Vibrio vulnificus [7]
  MIC: 50 µg/mL
Enterococcus faecalis [8]
  MIC: < 1.56 µg/mL
Candida tropicalis [9]
  MIC: 12.5 µg/mL
Klebsiella aerogenes [10]
  MBC: < 1.56 µg/mL
Klebsiella oxytoca [11]
  MBC: 12.5 µg/mL
Pseudomonas aeruginosa [12]
  MIC: < 1.56 µg/mL
Klebsiella pneumoniae [13]
  MIC: < 1.56 µg/mL
Streptococcus iniae [14]
  MBC: 25 µg/mL
Vibrio vulnificus [15]
  MIC: 50 µg/mL
Enterococcus faecium [16]
  MIC: > 100 µg/mL
Salmonella enterica [17]
  MIC: < 1.56 µg/mL
Vibrio vulnificus [18]
  MBC: 50 µg/mL
Edwardsiella tarda [19]
  MIC: 6.25 µg/mL
Vibrio vulnificus [20]
  MIC: 25 µg/mL
Vibrio vulnificus [21]
  MIC: 50 µg/mL
Vibrio alginolyticus [22]
  MBC: 3.12 µg/mL
Klebsiella oxytoca [23]
  MIC: 12.5 µg/mL
[24]
  MIC: 3.12 µg/mL
Salmonella typhimurium [25]; [49]
  MIC: < 1.56 µg/mL
Nakaseomyces glabratus [26]
  MIC: > 100 µg/mL
Vibrio alginolyticus [27]
  MIC: 3.12 µg/mL
[29]
  MBC: 3.12 µg/mL
Escherichia coli [30]
  MIC: < 1.56 µg/mL
Klebsiella pneumoniae [31]
  MBC: < 1.56 µg/mL
Streptococcus iniae [32]
  MIC: 12.5 µg/mL
Candida tropicalis [33]
  MFC: 12.5 µg/mL
Vibrio anguillarum [34]
  MIC: < 1.56 µg/mL
Vibrio harveyi [35]
  MBC: > 100 µg/mL
Vibrio vulnificus [36]
  fold change (FC): 16
Aeromonas hydrophila [37]
  MBC: > 100 µg/mL
Streptococcus agalactiae [38]
  MBC: 50 µg/mL
Escherichia coli [39]
  MBC: < 1.56 µg/mL
Vibrio anguillarum [40]
  MBC: 6.25 µg/mL
Salmonella typhimurium [41]; [49]
  MBC: < 1.56 µg/mL
Klebsiella aerogenes [42]
  MIC: < 1.56 µg/mL
Salmonella enterica [43]
  MBC: < 1.56 µg/mL
Nakaseomyces glabratus [44]
  MFC: > 100 µg/mL
Aeromonas hydrophila [45]
  MIC: 100 µg/mL
Pseudomonas aeruginosa [48]
  MBC: < 1.56 µg/mL
Streptococcus agalactiae [46]
  MIC: 50 µg/mL
Vibrio vulnificus [47]
  MBC: > 100 µg/mL

## C[C@@H](O)[C@H]1C(=O)N2C(C(=O)O)=C(S[C@@H]3CN[C@H](C(=O)N(C)C)C3)[C@H](C)[C@H]12 [MEROPENEM]
Pseudomonas aeruginosa [12]
  MIC: 0.39 µg/mL (≈ 1.02 µM)
Klebsiella pneumoniae [13]
  MIC: 200 µg/mL (≈ 522 µM)
Vibrio vulnificus [20]
  MIC: 0.024 µg/mL (≈ 0.0626 µM)
Escherichia coli [30]
  MIC: 0.012 µg/mL (≈ 0.0313 µM)
Streptococcus iniae [32]
  MIC: 0.39 µg/mL (≈ 1.02 µM)
Acinetobacter baumannii
  MIC: 0.39 µg/mL (≈ 1.02 µM)
Klebsiella aerogenes [42]
  MIC: 0.024 µg/mL (≈ 0.0626 µM)
Streptococcus agalactiae [46]
  MIC: 0.024 µg/mL (≈ 0.0626 µM)
